Laboratory results: publication PMC7561186, “Rational design of balanced dual-targeting antibiotics with limited resistance” (PLoS Biology, 2020)
Values joined by “and” are separate entries in the source; they are usually repeats but may differ in a detail not shown here. Identical values can stand only once. Like-named read-outs stand apart in the source and are kept apart here.

Experiments:
[1] = cited from earlier work
[2] = tested on: S. aureus VISA ATCC 700699 GyrB / ParE mutants; assay: MIC of spontaneous resistant mutants (single-step and second-step); type: cell-based; details: Staphylococcus aureus
Procedure: MICs were determined using a standard serial broth microdilution technique according to the CLSI guidelines. Briefly, bacterial strains were inoculated onto MHBII agar plates and were grown overnight at 37 °C. Next, 3 individual colonies from each strain were inoculated into 1 mL MHBII medium and propagated at 37 °C, 250 rpm overnight. In the cases of Enterococcus and Streptococcus sp., cells were plated to BHI agar plates, and BHI broth was used to determine MICs. […] Following dilutions, each well was seeded with 5×10^4 bacterial cells. All measurements were performed in 3 parallel replicates and to avoid possible edge effects in microwell plates, side rows (A and H) were filled with sterile medium. Following inoculations, plates were covered with lids and wrapped in polyethylene plastic bags to minimize evaporation but allow for O2 transfer. Plates were incubated at 37 °C under continuous shaking at 150 rpm for 18 hours. After incubation, OD600 of each well was measured using a BioTek Synergy 2 microplate reader.

[3] = tested on: S. aureus ATCC 700699 (VISA); assay: microbe, parasite or virus in culture; type: cell-based; details: Staphylococcus aureus, read-out: MIC in adapted strains
Procedure: Adaptive laboratory evolution experiments followed an established protocol for automated laboratory evolution and aimed to maximize the drug-resistance increment during a fixed time period. […] Experiments were conducted in 96-well plates, in MHBII medium, by utilizing a checkerboard layout to minimize and monitor cross-contamination. These 96-well deep-well plates (0.5 mL, polypropylene, V-bottom) were covered with sandwich covers (Enzyscreen BV) to ensure an optimal oxygen exchange rate and limit evaporation and were shaken at 150 rpm, 37 °C. […] Following cell transfer, each culture was allowed to grow for 48 hours. At each transfer, cell growth was monitored by measuring the OD600 in a BioTek Synergy 2 plate reader. […] Accordingly, only 1 of the 4 populations was retained for each independently evolving strain. This protocol was designed to avoid population extinction and to ensure that populations with the highest level of resistance are propagated further during adaptive evolution. […] Adaptation of populations was terminated after 20 transfers, i.e., 40 days. Following adaptation, cells from each final population were spread onto MHBII agar plates, and individual colonies were isolated. Next, one colony from each adapted line were subjected to capillary sequencing of gyrB and parE to assess their genotype.

[4] = target: T1, S. aureus topoisomerase IV (Staphylococcus aureus, UniProt P0C1S7); assay: S. aureus topoisomerase IV gel-based assay; type: biochemical; details: quadruplicates
T1 construct: purchased Inspiralis Ltd., Norwich, UK
T1 sequence (P0C1S7 whole entry): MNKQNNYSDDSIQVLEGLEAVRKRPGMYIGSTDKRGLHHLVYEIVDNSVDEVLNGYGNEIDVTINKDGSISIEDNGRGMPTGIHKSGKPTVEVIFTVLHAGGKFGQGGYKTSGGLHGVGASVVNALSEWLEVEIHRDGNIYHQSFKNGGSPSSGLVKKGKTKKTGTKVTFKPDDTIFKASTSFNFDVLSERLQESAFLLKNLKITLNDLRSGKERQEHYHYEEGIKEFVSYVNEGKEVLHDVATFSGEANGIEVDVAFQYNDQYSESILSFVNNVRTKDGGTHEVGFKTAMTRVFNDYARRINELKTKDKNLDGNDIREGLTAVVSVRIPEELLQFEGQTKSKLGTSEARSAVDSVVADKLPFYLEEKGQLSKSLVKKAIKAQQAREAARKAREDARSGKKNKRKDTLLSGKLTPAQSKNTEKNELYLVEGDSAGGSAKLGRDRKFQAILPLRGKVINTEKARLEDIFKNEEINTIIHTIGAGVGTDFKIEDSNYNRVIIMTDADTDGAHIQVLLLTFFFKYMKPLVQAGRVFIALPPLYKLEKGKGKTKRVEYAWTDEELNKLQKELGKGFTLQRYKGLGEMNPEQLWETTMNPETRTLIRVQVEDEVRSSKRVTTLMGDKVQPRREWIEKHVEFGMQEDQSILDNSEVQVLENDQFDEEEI
T1 sequence (P0C1U9 whole entry, further chain): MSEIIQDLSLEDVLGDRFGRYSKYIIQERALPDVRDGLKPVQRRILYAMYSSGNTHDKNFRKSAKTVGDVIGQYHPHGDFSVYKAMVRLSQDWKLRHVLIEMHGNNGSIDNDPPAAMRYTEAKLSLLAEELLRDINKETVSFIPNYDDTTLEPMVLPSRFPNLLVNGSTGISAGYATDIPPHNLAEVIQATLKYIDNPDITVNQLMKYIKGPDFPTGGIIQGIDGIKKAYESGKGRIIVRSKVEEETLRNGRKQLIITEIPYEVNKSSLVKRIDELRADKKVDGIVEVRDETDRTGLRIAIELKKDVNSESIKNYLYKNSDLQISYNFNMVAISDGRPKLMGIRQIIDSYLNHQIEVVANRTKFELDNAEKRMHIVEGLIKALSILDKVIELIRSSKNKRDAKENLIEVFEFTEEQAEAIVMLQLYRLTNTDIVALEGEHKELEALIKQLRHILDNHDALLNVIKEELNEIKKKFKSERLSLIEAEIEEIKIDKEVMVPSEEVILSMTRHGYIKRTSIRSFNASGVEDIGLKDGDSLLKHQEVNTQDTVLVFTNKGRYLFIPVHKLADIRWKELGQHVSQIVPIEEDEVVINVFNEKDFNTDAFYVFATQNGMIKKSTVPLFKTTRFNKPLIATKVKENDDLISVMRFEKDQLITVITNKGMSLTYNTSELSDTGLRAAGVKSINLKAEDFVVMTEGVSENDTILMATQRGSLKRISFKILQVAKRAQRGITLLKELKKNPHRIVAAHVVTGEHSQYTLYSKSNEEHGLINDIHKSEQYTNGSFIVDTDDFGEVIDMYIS

[5] = tested on: S. aureus ATCC 700699 VISA; assay: Time-dependent killing; type: cell-based; details: for Time-kill bacterial count: 10xMIC; for Colony numbers: time-kill raw counts, Samples 1-3
Procedure: Time-dependent killing experiments were performed as previously. S. aureus ATCC 700699 VISA cells were inoculated to MHBII agar plates and grown overnight at 37 °C. Next, 3 independent stationer-phase starter cultures were grown at 37 °C, 250 rpm overnight, in 3 × 1 mL MHBII broth. Next, 100-fold diluted cultures were prepared from each in 20 mL fresh MHBII medium and grown at 37 °C, 250 rpm until early exponential phase (OD600 = 0.3–0.4; i.e., 5 × 10^5 cells/mL). […] Cells were treated with antibiotics in Erlenmeyer flasks at 37 °C, 150 rpm for 48 hours. […] Next, 50 μL from each dilution were plated on MHBII agar plates, and plates were incubated overnight at 37 °C to calculate CFU per mL.

[6] = target: Topoisomerase IV; details: high-throughput relaxation assay ref 37; cited from earlier work

In the case of `O=c1ccc2ncc(=O)n3c2n1C[C@H]3CN1CCC(NCc2cc3c(cn2)OCCC3)CC1` [Gepotidacin], the “increment in resistance level by combination of 2 specific target mutations” value [1] is given as 2,000 fold and the “resistance level (MIC) of double target mutant” value [1] is given as 256 mg/L.
With `CO[C@@H]1[C@@H](OC(N)=O)[C@@H](O)[C@H](Oc2ccc3c(O)c(NC(=O)c4ccc(O)c(CC=C(C)C)c4)c(=O)oc3c2C)OC1(C)C` [Novobiocin] the MIC ([2]; VISA GyrB I175T) was 0.032 mg/L, the MIC ([2]; VISA GyrB R144G) was 4 mg/L and the MIC ([2]; VISA GyrB R144I) was 8 mg/L. For the same molecule, the MIC ([2]; VISA wt, read-out: MIC) was 0.05 mg/L, the MIC [3] was 16 mg/L and the IC50 [4] was 2 µM. The Time-kill bacterial count ([5]; time 0 hour) was 2.80E+05, the Time-kill bacterial count ([5]; time 3 hour) was 9.90E+04 and the Time-kill bacterial count ([5]; time 6 hour) was 4.70E+04. The Time-kill bacterial count ([5]; time 12 hour) was 5.80E+03, the Time-kill bacterial count ([5]; time 18 hour) was 1.50E+03 and the Time-kill bacterial count ([5]; time 24 hour) was 8.00E+02. The Time-kill bacterial count ([5]; time 48 hour) was 6.40E+02, the Colony numbers ([5]; time 0 h, Dilution 100) was 145 and 132 and 137 and the Colony numbers ([5]; time 3 h, Dilution 100) was 63 and 38 and 48. The Colony numbers ([5]; time 6 h, Dilution 100) was 21 and 29, the Colony numbers ([5]; time 12 h, Dilution 10) was 33 and 23 and 31 and the Colony numbers ([5]; time 18 h, Dilution 1) was 81 and 65 and 84.
For `O=C(O)C(=O)Nc1ccc2nc(NC(=O)c3cc(Br)c(Br)[nH]3)sc2c1` [ULD0], the IC50 [6] is listed as 10 ± 2 µM.
